Measured values from patent US20260191998A1, “INDOLE PHTHALOCYANINE COMPOUND, PREPARATION METHOD THEREFOR, AND USE THEREOF IN TUMOR DIAGNOSIS IMAGING” (JIANGSU YAHONG MEDITECH CO., LTD., priority 2022, published 2026).
Counter-ions that a name gives are not always drawn.

Experiment: UV-VIS absorption spectra (optical property test)
Type: physicochemical
Details: 10 μM, DMSO solution; for Absorbance × 10^4: at maximum absorption peak
Protocol: The UV-VIS absorption spectra of the compounds (10 μM, DMSO solution) were detected using Shimadzu UV2600 spectrophotometer, and the maximum absorption peak and absorbance of each compound were obtained.

For “2-((E)-2-((E)-2-chloro-3-(2-((E)-3,3-dimethyl-1-(6-oxo-6-(phenylamino)hexyl)indolin-2-ylidene)ethenyl)cyclohex-1-en-1-yl)ethenyl)-3,3-dimethyl-1-(6-oxo-6-(phenylamino) hexyl)-3H-indol-1-ium 2,2,2-trifluoroacetate [Example 27B]”, the Absorption peak was 797 nm and the “Absorbance × 10^4” value was 2.117.
For `CCN1/C(=C/C=C2\C[N+](C)(C)CC(/C=C/C3=[N+](CC)c4ccccc4C3(C)C)=C2Cl)C(C)(C)c2ccccc21` [Example 18, 2-((E)-2-((E)-4-chloro-5-(2-((E)-1-ethyl-3,3-dimethylindolin-2-ylidene)ethenyl)-1,1-dimethyl-1,2,5,6-tetrahydropyridin-1-ium-3-yl)ethenyl)-1-ethyl-3,3-dimethyl-3H-indol-1-ium Ditrifluoroacetate], the Absorption peak was 764.5 nm and the “Absorbance × 10^4” value was 2.12.
With `CC1(C)C(/C=C/C2=C(Cl)C(=C/C=C3/N(CCCCCC(=O)Oc4ccccc4)c4ccccc4C3(C)C)/C[N+](C)(C)C2)=[N+](CCCCCC(=O)Oc2ccccc2)c2ccccc21` [Example 14, 2-((E)-2-((E)-4-chloro-5-(2-((E)-3,3-dimethyl-1-(6-oxo-6-phenoxyhexyl)indolin-2-ylidene)ethenyl)-1,1-dimethyl-1,2,5,6-tetrahydropyridin-1-ium-3-yl)ethenyl)-3,3-dimethyl-1-(6-oxo-6-phenoxyhexyl)-3H-indol-1-ium Dichloride] the Absorption peak was 767.5 nm and the “Absorbance × 10^4” value was 1.71.
In the case of `CC1(C)C(/C=C/C2=C(Cl)C(=C/C=C3/N(CCCCCC(=O)Oc4ccccc4)c4ccccc4C3(C)C)/CC2)=[N+](CCCCCC(=O)O)c2ccccc21.[Cl-]` [Example 89], the “Absorbance × 10^4” value is reported as 1.86.
For `CC[N+]1=C(/C=C/C2=C(Cl)C(=C/C=C3/N(CCOCCC(=O)Oc4ccccc4)c4ccccc4C3(C)C)/CC2)C(C)(C)c2ccccc21` [Example 21, 2-((E)-2-((E)-2-chloro-3-(2-((E)-3,3-dimethyl-1-(2-(3-oxo-3-phenoxypropoxy)ethyl)indol-2-methylene)ethylidene)cyclopent-1-en-1-yl)ethenyl)-1-ethyl-3,3-dimethyl-3H-indol-1-ium Trifluoroacetate], the Absorption peak was 821 nm and the “Absorbance × 10^4” value was 2.466.
With `CC[N+]1=C(/C=C/C2=C(Oc3ccccc3)C(=C/C=C3/N(CCCCCC(=O)Oc4ccccc4)c4ccccc4C3(C)C)/CCC2)C(C)(C)c2ccccc21` [Example 12, 2-((E)-2-((E)-3-(2-((E)-3,3-dimethyl-1-(6-oxo-6-phenoxyhexyl)indolin-2-ylidene)ethenyl)-2-phenoxycyclohex-1-en-1-yl)ethenyl)-1-ethyl-3,3-dimethyl-3H-indol-1-ium Chloride] the Absorption peak was 781.5 nm and the “Absorbance × 10^4” value was 2.07.
In the case of `CC[N+]1=C(/C=C/C2=C(Cl)C(=C/C=C3/N(CCCCCC(=O)Oc4ccccc4)c4ccccc4C3(C)C)/CC2)C(C)(C)c2cc(S(=O)(=O)O)ccc21` [Example 22, 2-((E)-2-((E)-2-chloro-3-(2-((E)-3,3-dimethyl-1-(6-oxo-6-phenoxyhexyl)indolin-2-ylidene)ethenyl)cyclopent-1-en-1-yl)ethenyl)-1-ethyl-3,3-dimethyl-5-sulfonyl-3H-indol-1-ium Chloride], the Absorption peak is reported as 827 nm and the “Absorbance × 10^4” value is reported as 1.97.
In the case of `CC[N+]1=C(/C=C/C2=C(Cl)C(=C/C=C3/N(CCCCCC(=O)Oc4ccccc4)c4ccccc4C3(C)C)/C[N+](C)(C)C2)C(C)(C)c2ccccc21` [Example 28], the Absorption peak is reported as 766 nm and the “Absorbance × 10^4” value is reported as 1.856.
For `CC[N+]1=C(/C=C/C2=C(Cl)C(=C/C=C3/N(CCCCC(=O)NCCCNC(=O)CCCCN4/C(=C/C=C5\CCCC(/C=C/C6=[N+](CC)c7ccccc7C6(C)C)=C5Cl)C(C)(C)c5ccccc54)c4ccccc4C3(C)C)/CCC2)C(C)(C)c2ccccc21.[Cl-].[Cl-]` [Example 82], the Absorption peak was 793.5 nm and the “Absorbance × 10^4” value was 3.686.
With `CC1(C)C(/C=C/C2=C(Oc3ccc(S(=O)(=O)O)cc3)C(=C/C=C3/N(CCCCCC(=O)Oc4ccccc4)c4ccccc4C3(C)C)/C[N+](C)(C)C2)=[N+](CCCCCC(=O)Oc2ccccc2)c2ccccc21` [Example 103] the Absorption peak was 757.5 nm and the “Absorbance × 10^4” value was 2.483.
In the case of `CC1(C)C(/C=C/C2=C(Cl)C(=C/C=C3/N(CCCCCC(=O)Nc4ccccc4)c4ccccc4C3(C)C)/CCC2)=[N+](CCCCS(=O)(=O)O)c2ccccc21` [Example 26, 2-((E)-2-((E)-2-chloro-3-(2-((E)-3,3-dimethyl-1l-(6-oxo-6-(phenylamino)hexyl)indolin-2-ylidene)ethenyl)cyclohex-1-en-1-yl)ethenyl)-3,3-dimethyl-1-(4-sulfonylbutyl)-3H-indo-1-ium Formate], the Absorption peak is reported as 797.5 nm and the “Absorbance × 10^4” value is reported as 2.44.
For `C[N+]1=C(/C=C/C2=C(Cl)C(=C/C=C3/N(CCCCCC(=O)O)c4ccccc4C3(C)C)/CCC2)C(C)(C)c2cc(C(=O)O)ccc21` [Example 119, 5-carboxy-2-((E)-2-((E)-3-(2-((E)-1-(5-carboxypentyl)-3,3-dimethylindolin-2-ylidene)ethenyl)-2-chlorocyclohex-1-en-1-yl)ethenyl)-1,3,3-trimethyl-3H-indol-1-ium 2,2,2-trifluoroacetate], the “Absorbance × 10^4” value was 1.52.
For “2-((E)-2-((E)-2-bromo-3-(2-((E)-3,3-dimethyl-1-(6-oxo-6-phenoxyhexyl)indolin-2-ylidene)ethenyl)cyclohex-1-en-1-yl)ethenyl)-1,3,3-trimethyl-3H-indol-1-ium 2,2,2-trifluoroacetate [Example 58]”, the “Absorbance × 10^4” value was 2.21.
With `CC[N+]1=C(/C=C/C2=C(Br)C(=C/C=C3/N(CCCCCC(=O)Oc4ccccc4)c4ccccc4C3(C)C)/CCC2)C(C)(C)c2ccccc21` [Example 54, 2-((E)-2-((E)-2-bromo-3-(2-((E)-3,3-dimethyl-1-(6-oxo-6-phenoxyhexyl)indolin-2-ylidene)ethenyl)cyclohex-1-en-1-yl)ethenyl)-1-ethyl-3,3-dimethyl-3H-indol-1-ium Formate] the “Absorbance × 10^4” value was 2.57.
For `C[N+]1=C(/C=C/C2=C(Cl)C(=C/C=C3/N(CCCCCC(=O)Nc4ccccc4)c4ccccc4C3(C)C)/CC2)C(C)(C)c2ccccc21` [Example 83, 2-((E)-2-((E)-2-chloro-3-(2-((E)-3,3-dimethyl-1-(6-oxo-6-(anilino)hexyl)indol-2-methylene)ethylidene)cyclopent-1-en-1yl)ethenyl)-1,3,3-trimethyl-3H-indol-1-ium Chloride], the Absorption peak was 820 nm and the “Absorbance × 10^4” value was 3.079.
With `CN(C)C1CC(/C=C/C2=[N+](C)c3ccccc3C2(C)C)=C(Cl)C(=C/C=C2/N(CCCCCC(=O)Oc3ccccc3)c3ccccc3C2(C)C)/C1` (stereo not shown) [Example 50, 2-((E)-2-((E)-2-chloro-3-(2-((E)-3,3-dimethyl-1-(6-oxo-6-phenoxyhexyl)indolin-2-ylidene)ethenyl)-5-(dimethylamino)cyclohex-1-en-1-yl)ethenyl)-1,3,3-trimethyl-3H-indol-1-ium Formate] the “Absorbance × 10^4” value was 1.97.
For `CC[N+]1=C(/C=C/C2=C(Cl)C(=C/C=C3/N(CCCCCC(=O)Oc4ccccc4)c4ccccc4C3(C)C)/C[N+](C)(C)C2)C(C)(C)c2ccccc21` [Example 16, 2-((E)-2-((E)-4-chloro-5-(2-((E)-3,3-dimethyl-1-(6-oxo-6-phenoxyhexyl)indolin-2-ylidene)ethenyl)-1,1-dimethyl-1,2,5,6-tetrahydropyridin-1-ium-3-yl)ethenyl)-1-ethyl-3,3-dimethyl-3H-indol-1-ium Dichloride], the Absorption peak was 766 nm and the “Absorbance × 10^4” value was 1.71.
In the case of `CC[N+]1=C(/C=C/C2=C(Cl)C(=C/C=C3/N(CCCCCC(=O)O)c4ccccc4C3(C)C)/CCC2)C(C)(C)c2cc(C(=O)O)ccc21.[Cl-]` [Example 92], the “Absorbance × 10^4” value is reported as 1.49.
With `CC[N+]1=C(/C=C/C2=C(Sc3ccccc3)C(=C/C=C3/N(CCCCCC(=O)Oc4ccccc4)c4ccccc4C3(C)C)/CC2)C(C)(C)c2ccccc21` [Example 101] the Absorption peak was 836.5 nm and the “Absorbance × 10^4” value was 1.971.
With `CC1(C)C(/C=C/C2=C(Cl)C(=C/C=C3/N(CCCCCC(=O)O)c4ccccc4C3(C)C)/CCC2)=[N+](CCO)c2ccccc21` [Example 49, 2-((E)-2-((E)-3-(2-((E)-1-(5-carboxypentyl)-3,3-dimethylindolin-2-ylidene)ethenyl)-2-chlorocyclohex-1-en-1-yl)ethenyl)-1-(2-hydroxyethyl)-3,3-dimethyl-3H-indol-1-ium Chloride] the “Absorbance × 10^4” value was 2.3.
In the case of “2-((E)-2-((E)-2-chloro-3-(2-((E)-3,3-dimethyl-1-(2-((5-oxo-5-phenoxypentyl)oxy)ethyl) indolin-2-ylidene)ethenyl)cyclohex-1-en-1-yl)ethenyl)-3,3-dimethyl-1-(2-((5-oxo-5-phenoxypentyl)oxy)ethyl)-3H-indol-1-ium [Example 37B]”, the Absorption peak is reported as 801 nm and the “Absorbance × 10^4” value is reported as 1.563.
With `C[N+]1=C(/C=C/C2=C(Cl)C(=C/C=C3/N(CCOCCOCCOCc4ccccc4)c4ccccc4C3(C)C)/CC2)C(C)(C)c2ccccc21` [Example 55, 2-((E)-2-((E)-3-(2-((E)-1-(2-(2-(2-(benzyloxy)ethoxy)ethoxy)ethyl)-3,3-dimethylindolin-2-ylidene)ethenyl)-2-chlorocyclopent-1-en-1-yl)ethenyl)-1,3,3-trimethyl-3H-indol-1-ium Formate] the “Absorbance × 10^4” value was 3.48.
For `CCN1/C(=C/C=C2\CCCC(/C=C/C3=[N+](CC)c4ccccc4C3(C)C)=C2NCCCCCC(=O)O)C(C)(C)c2ccccc21` [Example 13, 2-((E)-2-((E)-2-((5-carboxypentyl)amino)-3-(2-((E)-1-ethyl-3,3-dimethylindolin-2-ylidene)ethenyl)cyclohex-1-en-1-yl)ethenyl)-1-ethyl-3,3-dimethyl-3H-indol-1-ium Formate], the Absorption peak was 632 nm and the “Absorbance × 10^4” value was 0.68.
For `CC1(C)C(/C=C/C2=C(Cl)C(=C/C=C3/N(CCCCCC(=O)O)c4ccccc4C3(C)C)/C[N+](C)(C)C2)=[N+](CCCCCC(=O)O)c2ccccc21` [Example 25], the Absorption peak was 767.5 nm and the “Absorbance × 10^4” value was 2.265.
